Reference: ChEMBL document CHEMBL1133304, “Design and synthesis of potent thiol-based inhibitors of endothelin converting enzyme-1” (Bioorg Med Chem Lett, 2000)

What was measured:
[1] = target: T1, Endothelin-converting enzyme 1 (Homo sapiens, UniProt P42892); test: In vitro inhibition of human Endothelin converting Enzyme-1 activity
T1 sequence (P42892 whole entry): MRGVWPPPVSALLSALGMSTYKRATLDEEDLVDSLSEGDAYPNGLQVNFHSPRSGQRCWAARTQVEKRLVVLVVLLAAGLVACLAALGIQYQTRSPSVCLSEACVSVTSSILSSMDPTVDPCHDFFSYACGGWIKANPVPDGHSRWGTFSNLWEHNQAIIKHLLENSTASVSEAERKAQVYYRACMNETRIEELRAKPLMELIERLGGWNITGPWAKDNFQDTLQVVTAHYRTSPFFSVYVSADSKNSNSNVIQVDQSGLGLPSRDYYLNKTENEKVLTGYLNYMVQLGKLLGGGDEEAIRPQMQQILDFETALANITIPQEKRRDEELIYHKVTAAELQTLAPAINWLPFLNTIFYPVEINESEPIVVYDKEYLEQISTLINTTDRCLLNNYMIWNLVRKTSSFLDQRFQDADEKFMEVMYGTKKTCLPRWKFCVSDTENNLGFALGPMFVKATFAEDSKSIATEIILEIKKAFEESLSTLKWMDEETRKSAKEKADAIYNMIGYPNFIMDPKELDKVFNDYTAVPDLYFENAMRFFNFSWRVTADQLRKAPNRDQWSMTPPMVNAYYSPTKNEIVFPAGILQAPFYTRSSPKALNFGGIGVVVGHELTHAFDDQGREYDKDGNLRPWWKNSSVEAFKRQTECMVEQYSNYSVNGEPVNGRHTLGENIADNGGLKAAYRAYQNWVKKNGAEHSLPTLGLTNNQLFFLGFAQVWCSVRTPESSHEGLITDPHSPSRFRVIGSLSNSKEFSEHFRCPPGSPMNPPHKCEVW

Rattus norvegicus [2] = test: Intravenously injected compound (0.3 nmol/kg) was tested in rat for the inhibitory activity against endothelin-1 (ET-1) pressor response after 24 hour; type: functional
Rattus norvegicus [3] = test: Intravenously injected compound (0.3 nmol/kg) was tested in rat for the inhibitory activity against endothelin-1 (ET-1) pressor response after 8 hour; type: functional

IC50 [1] [nM] | Structure (SMILES) | Inhibition (Rattus norvegicus [2]) [%] | Inhibition (Rattus norvegicus [3]) [%]
77 | CC(C)[C@H](S)C(=O)NC1(C(=O)N[C@@H](Cc2ccc(-c3ccccc3)cc2)C(=O)O)CCCC1 |  | 
 | CCC[C@H](SC(C)=O)C(=O)NC1(C(=O)N[C@@H](Cc2ccc(-c3ccccc3)cc2)C(=O)OC)CCCC1 | 30 | 75
